# Test results: patent publication US9265276B2, “Reducing astringency in compositions containing phenolic compounds” (Nestec S.A., priority 2008, dated 2016)
# Columns and labels:
# [1] = Free and bound catechins: binding to lecithin (centrifugation, HPLC); settings: for binding to the lecithin (in words): green tea samples with lecithin 0.05, 0.1, 0.15%
# Procedure: Phosphate buffer was added to each sample to give a final concentration of 20 mM at pH 6.0 before they were pre-homogenized with an Ultraturrax at full speed. The dispersions were flushed with nitrogen for 5 minutes and then green tea extract was added for a final concentration of 0.2%. After gentle stirring for 15 min the mixes were finally homogenized with a Microfluidizer processor (Microfluidics, Newton, Mass., USA) with 1 run at 250 bar. […] The homogenized dispersions were filled into 1 lt glass bottles and were sterilized (30 sec at 80° C.) in a water bath heated with steam. Green tea catechins were analysed in the fresh and stored samples by HPLC on a C-18 column, using UV detection at 280 nm. For total catechin determination samples were treated with concentrated acetic acid and the extracts were stabilised with ascorbic acid, EDTA and acetonitrile. For free catechin determination each sample was previously spun at 14,000×g for 30 min using an Eppendorf (Dr Vaudaux A G, Binningen, C H) centrifuge 5415. The resulting supernatant was then treated as previously described. Stability and binding to phospholipids were calculated for (-)-epigallocatechin (Egc), (-)-epigallocatechin-3-gallate (Egcg), and caffeine.
# [2] = Stability of green tea catechins during storage at room temperature (HPLC); format: physicochemical; settings: for catechins (% recovered): room temperature, pH 6.0
# Procedure: Soya lecithin was dispersed in distilled water to yield different concentrations (0.05%; 0.1% and 0.2%) by stirring the mixes at 37° C. for 2 h. Phosphate buffer was added to each sample to give a final concentration of 20 mM at pH 6.0 before they were pre-homogenized with an Ultraturrax at full speed. The dispersions were flushed with nitrogen for 5 minutes and then green tea extract was added for a final concentration of 0.2%. After gentle stirring for 15 min the mixes were finally homogenized with a Microfluidizer processor (Microfluidics, Newton, Mass., USA) with 1 run at 250 bar. The same protocol was followed for preparing the green tea control except that no lecithin was added. The homogenized dispersions were filled into 1 lt glass bottles and were sterilized (30 sec at 80° C.) in a water bath heated with steam.
# The sterilized samples were stored at room temperature up to 25 days. No microbiological contamination with mesophilic germs or Enterobacteriaceae was detected throughout the storage test.
# Green tea catechins were analysed in the fresh and stored samples by HPLC on a C-18 column, using UV detection at 280 nm. For total catechin determination samples were treated with concentrated acetic acid and the extracts were stabilised with ascorbic acid, EDTA and acetonitrile. For free catechin determination each sample was previously spun at 14,000×g for 30 min using an Eppendorf (Dr Vaudaux A G, Binningen, C H) centrifuge 5415. The resulting supernatant was then treated as previously described. Stability and binding to phospholipids were calculated for (−)-epigallocatechin (Egc), (−)-epigallocatechin-3-gallate (Egcg), and caffeine.
# [3] = green tea 0.2% + lecithin 0.05%, storage 0 d
# [4] = green tea 0.2% + lecithin 0.05%, storage 2 d
# [5] = green tea 0.2% + lecithin 0.05%, storage 9 d
# [6] = green tea 0.2% + lecithin 0.05%, storage 13 d
# [7] = green tea 0.2% + lecithin 0.05%, storage 22 d
# [8] = green tea 0.2% + lecithin 0.1%, storage 0 d
# [9] = green tea 0.2% + lecithin 0.1%, storage 2 d
# [10] = green tea 0.2% + lecithin 0.1%, storage 9 d
# [11] = green tea 0.2% + lecithin 0.1%, storage 13 d
# [12] = green tea 0.2% + lecithin 0.1%, storage 22 d
# [13] = green tea 0.2% + lecithin 0.2%, storage 0 d
# [14] = green tea 0.2% + lecithin 0.2%, storage 2 d
# [15] = green tea 0.2% + lecithin 0.2%, storage 9 d
# [16] = green tea 0.2% + lecithin 0.2%, storage 13 d
# [17] = green tea 0.2% + lecithin 0.2%, storage 22 d
structure (smiles),measurement,setting,value
"O=C(O[C@@H]1Cc2c(O)cc(O)cc2O[C@@H]1c1ccc(O)c(O)c1)c1cc(O)c(O)c(O)c1 [Ecg, epicatechin gallate]",binding to the lecithin (in words),[1],interact with the added lecithin
"Oc1cc(O)c2c(c1)O[C@H](c1cc(O)c(O)c(O)c1)[C@H](O)C2 [Egc, (−)-epigallocatechin]",bound catechins (% recovered in pellet),[1]; [3],1%
same,bound catechins (% recovered in pellet),[1]; [4],3%
same,bound catechins (% recovered in pellet),[1]; [5],1%
same,bound catechins (% recovered in pellet),[1]; [6],1%
same,bound catechins (% recovered in pellet),[1]; [7],0%
same,bound catechins (% recovered in pellet),[1]; [8],2%
same,bound catechins (% recovered in pellet),[1]; [9],4%
same,bound catechins (% recovered in pellet),[1]; [10],2%
same,bound catechins (% recovered in pellet),[1]; [11],2%
same,bound catechins (% recovered in pellet),[1]; [12],2%
same,bound catechins (% recovered in pellet),[1]; [13],5%
same,bound catechins (% recovered in pellet),[1]; [14],6%
same,bound catechins (% recovered in pellet),[1]; [15],5%
same,bound catechins (% recovered in pellet),[1]; [16],5%
same,bound catechins (% recovered in pellet),[1]; [17],6%
same,bound catechins (% recovered in pellet),"[1]; green tea 0.2%, storage 0 d",3%
same,bound catechins (% recovered in pellet),"[1]; green tea 0.2%, storage 2 d",0%
same,bound catechins (% recovered in pellet),"[1]; green tea 0.2%, storage 9 d",0%
same,bound catechins (% recovered in pellet),"[1]; green tea 0.2%, storage 13 d",0%
same,bound catechins (% recovered in pellet),"[1]; green tea 0.2%, storage 22 d",0%
same,catechins (% recovered),[2]; [3],100%
same,catechins (% recovered),[2]; [4],92%
same,catechins (% recovered),[2]; [5],72%
same,catechins (% recovered),[2]; [6],59%
same,catechins (% recovered),[2]; [7],42%
same,catechins (% recovered),[2]; [8],100%
same,catechins (% recovered),[2]; [9],94%
same,catechins (% recovered),[2]; [10],70%
same,catechins (% recovered),[2]; [11],57%
same,catechins (% recovered),[2]; [12],39%
same,catechins (% recovered),[2]; [13],100%
same,catechins (% recovered),[2]; [14],91%
same,catechins (% recovered),[2]; [15],64%
same,catechins (% recovered),[2]; [16],49%
same,catechins (% recovered),[2]; [17],30%
same,catechins (% recovered),"[2]; green tea 0.2%, storage 0 d",100%
same,catechins (% recovered),"[2]; green tea 0.2%, storage 2 d",93%
same,catechins (% recovered),"[2]; green tea 0.2%, storage 9 d",65%
same,catechins (% recovered),"[2]; green tea 0.2%, storage 13 d",50%
same,catechins (% recovered),"[2]; green tea 0.2%, storage 22 d",28%
"O=C(O[C@@H]1Cc2c(O)cc(O)cc2O[C@@H]1c1cc(O)c(O)c(O)c1)c1cc(O)c(O)c(O)c1 [Egcg, (−)-epigallocatechin-3-gallate]",bound catechins (% recovered in pellet),[1]; [3],18%
same,bound catechins (% recovered in pellet),[1]; [4],17%
same,bound catechins (% recovered in pellet),[1]; [5],21%
same,bound catechins (% recovered in pellet),[1]; [6],22%
same,bound catechins (% recovered in pellet),[1]; [7],22%
same,bound catechins (% recovered in pellet),[1]; [8],33%
same,bound catechins (% recovered in pellet),[1]; [9],30%
same,bound catechins (% recovered in pellet),[1]; [10],37%
same,bound catechins (% recovered in pellet),[1]; [11],38%
same,bound catechins (% recovered in pellet),[1]; [12],39%
same,bound catechins (% recovered in pellet),[1]; [13],46%
same,bound catechins (% recovered in pellet),[1]; [14],45%
same,bound catechins (% recovered in pellet),[1]; [15],53%
same,bound catechins (% recovered in pellet),[1]; [16],55%
same,bound catechins (% recovered in pellet),[1]; [17],59%
same,bound catechins (% recovered in pellet),"[1]; green tea 0.2%, storage 0 d",1%
same,bound catechins (% recovered in pellet),"[1]; green tea 0.2%, storage 2 d",1%
same,bound catechins (% recovered in pellet),"[1]; green tea 0.2%, storage 9 d",1%
same,bound catechins (% recovered in pellet),"[1]; green tea 0.2%, storage 13 d",2%
same,bound catechins (% recovered in pellet),"[1]; green tea 0.2%, storage 22 d",2%
same,binding to the lecithin (in words),[1],interact with the added lecithin
same,percentage of bound Egcg during storage (in words),[1]; lecithin containing green tea samples during storage,not only remained constant but rather slightly increased with time
same,catechins (% recovered),[2]; [3],100%
same,catechins (% recovered),[2]; [4],95%
same,catechins (% recovered),[2]; [5],78%
same,catechins (% recovered),[2]; [6],68%
same,catechins (% recovered),[2]; [7],55%
same,catechins (% recovered),[2]; [8],100%
same,catechins (% recovered),[2]; [9],98%
same,catechins (% recovered),[2]; [10],82%
same,catechins (% recovered),[2]; [11],74%
same,catechins (% recovered),[2]; [12],62%
same,catechins (% recovered),[2]; [13],100%
same,catechins (% recovered),[2]; [14],99%
same,catechins (% recovered),[2]; [15],88%
same,catechins (% recovered),[2]; [16],82%
same,catechins (% recovered),[2]; [17],71%
same,catechins (% recovered),"[2]; green tea 0.2%, storage 0 d",100%
same,catechins (% recovered),"[2]; green tea 0.2%, storage 2 d",94%
same,catechins (% recovered),"[2]; green tea 0.2%, storage 9 d",67%
same,catechins (% recovered),"[2]; green tea 0.2%, storage 13 d",53%
same,catechins (% recovered),"[2]; green tea 0.2%, storage 22 d",33%
same,stabilisation by lecithin during storage (in words),[2]; storage of the green tea samples,dose-dependent stabilisation
Cn1c(=O)c2c(ncn2C)n(C)c1=O [caffeine],stability during storage (in words),[2],quite stable under the chosen storage conditions
